Source: the supplement of paper PMC10307832

Legend:
Experiment in all cases: relative viability (nuclei count vs DMSO), 5 days (fraction); higher = more cells survive
NCI-H2126 = system: NCI-H2126
Method in brief: (§1)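 For relative viability, nuclei counts in treated wells were divided by those in vehicle wells. Lung cancer cell lines had been pin-tool dosed in 1536-well plates the day after seeding and cultured for 5 days, then fixed and stained in one step (final 0.05% Triton X-100, 1% formaldehyde, 1 ug/ml Hoechst) and imaged at 4×. Doses were one drug alone or a fixed anchor-drug dose plus five library-drug doses (not always all listed) in √10 steps, and values are duplicate-plate medians.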

NCI-H3122 = system: NCI-H3122
Method in brief: as §1

HOP-62 = system: HOP-62
Method in brief: as §1

ChaGo-K-1 = system: ChaGo-K-1
Method in brief: as §1

ABC-1 = system: ABC-1
Method in brief: as §1

NCI-H1651 = system: NCI-H1651
Method in brief: as §1

EMC-BAC-2 = system: EMC-BAC-2
Method in brief: as §1

NCI-H2087 = system: NCI-H2087
Method in brief: as §1

NCI-H1755 = system: NCI-H1755
Method in brief: as §1

LXF-289 = system: LXF-289
Method in brief: as §1

NCI-H2009 = system: NCI-H2009
Method in brief: as §1

NCI-H322M = system: NCI-H322M
Method in brief: as §1

NCI-H1734 = system: NCI-H1734
Method in brief: as §1

SK-MES-1 = system: SK-MES-1
Method in brief: as §1

NCI-H441 = system: NCI-H441
Method in brief: as §1

LK-2 = system: LK-2
Method in brief: as §1

NCI-H596 = system: NCI-H596
Method in brief: as §1

CAL-12T = system: CAL-12T
Method in brief: as §1

201T = system: 201T
Method in brief: as §1

H3255 = system: H3255
Method in brief: as §1

NCI-H647 = system: NCI-H647
Method in brief: as §1

NCI-H2170 = system: NCI-H2170
Method in brief: as §1

PC-14 = system: PC-14
Method in brief: as §1

O=C(O)CCCCC(CCSCc1ccccc1)SCc1ccccc1 (centres undefined) [CPI-613] + COc1cc2c(Oc3ccc(NC(=O)C4(C(=O)Nc5ccc(F)cc5)CC4)cc3F)ccnc2cc1OCCCN1CCOCC1 [Foretinib] (partner 0.25 µM)
relative viability (NCI-H2126; first compound 5 µM): 1.12
relative viability (NCI-H2126; first compound 15.81 µM): 1.09
relative viability (NCI-H2126; first compound 50 µM): 1.09
relative viability (NCI-H2126; first compound 158.11 µM): 1.14
relative viability (NCI-H2126; first compound 500 µM): 1.18
relative viability (NCI-H3122; first compound 5 µM): 0.989
relative viability (NCI-H3122; first compound 15.81 µM): 0.895
relative viability (NCI-H3122; first compound 50 µM): 0.971
relative viability (NCI-H3122; first compound 158.11 µM): 0.858
relative viability (NCI-H3122; first compound 500 µM): 0.0742
relative viability (HOP-62; first compound 5 µM): 1.06
relative viability (HOP-62; first compound 15.81 µM): 1.04
relative viability (HOP-62; first compound 50 µM): 1.11
relative viability (HOP-62; first compound 158.11 µM): 0.39
relative viability (HOP-62; first compound 500 µM): 0.231
relative viability (ChaGo-K-1; first compound 5 µM): 0.818
relative viability (ChaGo-K-1; first compound 15.81 µM): 0.901
relative viability (ChaGo-K-1; first compound 50 µM): 0.929
relative viability (ChaGo-K-1; first compound 158.11 µM): 0.245
relative viability (ChaGo-K-1; first compound 500 µM): 0.105
relative viability (ABC-1; first compound 5 µM): 1.14
relative viability (ABC-1; first compound 15.81 µM): 0.929
relative viability (ABC-1; first compound 50 µM): 0.996
relative viability (ABC-1; first compound 158.11 µM): 0.243
relative viability (ABC-1; first compound 500 µM): 0.0969
relative viability (NCI-H1651; first compound 5 µM): 0.794
relative viability (NCI-H1651; first compound 15.81 µM): 0.838
relative viability (NCI-H1651; first compound 50 µM): 0.974
relative viability (NCI-H1651; first compound 158.11 µM): 0.295
relative viability (NCI-H1651; first compound 500 µM): 0.088
relative viability (EMC-BAC-2; first compound 5 µM): 1.01
relative viability (EMC-BAC-2; first compound 15.81 µM): 0.993
relative viability (EMC-BAC-2; first compound 50 µM): 0.967
relative viability (EMC-BAC-2; first compound 158.11 µM): 0.367
relative viability (EMC-BAC-2; first compound 500 µM): 0.0284
relative viability (NCI-H2087; first compound 5 µM): 1.09
relative viability (NCI-H2087; first compound 15.81 µM): 1.11
relative viability (NCI-H2087; first compound 50 µM): 1.05
relative viability (NCI-H2087; first compound 158.11 µM): 0.0825
relative viability (NCI-H2087; first compound 500 µM): 0.0183
relative viability (NCI-H1755; first compound 5 µM): 0.886
relative viability (NCI-H1755; first compound 15.81 µM): 0.878
relative viability (NCI-H1755; first compound 50 µM): 0.898
relative viability (NCI-H1755; first compound 158.11 µM): 0.887
relative viability (NCI-H1755; first compound 500 µM): 0.175
relative viability (LXF-289; first compound 5 µM): 0.974
relative viability (LXF-289; first compound 15.81 µM): 0.919
relative viability (LXF-289; first compound 50 µM): 0.898
relative viability (LXF-289; first compound 158.11 µM): 0.226
relative viability (LXF-289; first compound 500 µM): 0.0507
relative viability (NCI-H2009; first compound 5 µM): 1.25
relative viability (NCI-H2009; first compound 15.81 µM): 1.16
relative viability (NCI-H2009; first compound 50 µM): 1.12
relative viability (NCI-H2009; first compound 158.11 µM): 0.221
relative viability (NCI-H2009; first compound 500 µM): 0.019
relative viability (NCI-H322M; first compound 5 µM): 0.969
relative viability (NCI-H322M; first compound 15.81 µM): 0.972
relative viability (NCI-H322M; first compound 50 µM): 1.04
relative viability (NCI-H322M; first compound 158.11 µM): 0.689
relative viability (NCI-H322M; first compound 500 µM): 0.0324
relative viability (NCI-H1734; first compound 5 µM): 0.792
relative viability (NCI-H1734; first compound 15.81 µM): 0.984
relative viability (NCI-H1734; first compound 50 µM): 0.859
relative viability (NCI-H1734; first compound 158.11 µM): 0.332
relative viability (NCI-H1734; first compound 500 µM): 0.104
relative viability (SK-MES-1; first compound 5 µM): 0.999
relative viability (SK-MES-1; first compound 15.81 µM): 0.901
relative viability (SK-MES-1; first compound 50 µM): 0.843
relative viability (SK-MES-1; first compound 158.11 µM): 0.831
relative viability (SK-MES-1; first compound 500 µM): 0.84
relative viability (NCI-H441; first compound 5 µM): 0.962
relative viability (NCI-H441; first compound 15.81 µM): 0.948
relative viability (NCI-H441; first compound 50 µM): 0.937
relative viability (NCI-H441; first compound 158.11 µM): 0.271
relative viability (NCI-H441; first compound 500 µM): 0.076
relative viability (LK-2; first compound 5 µM): 1.45
relative viability (LK-2; first compound 15.81 µM): 1.18
relative viability (LK-2; first compound 50 µM): 1.16
relative viability (LK-2; first compound 158.11 µM): 1.06
relative viability (LK-2; first compound 500 µM): 0.126
relative viability (NCI-H596; first compound 5 µM): 0.862
relative viability (NCI-H596; first compound 15.81 µM): 0.969
relative viability (NCI-H596; first compound 50 µM): 0.813
relative viability (NCI-H596; first compound 158.11 µM): 0.592
relative viability (NCI-H596; first compound 500 µM): 0.0375
relative viability (CAL-12T; first compound 5 µM): 0.981
relative viability (CAL-12T; first compound 15.81 µM): 0.89
relative viability (CAL-12T; first compound 50 µM): 1.11
relative viability (CAL-12T; first compound 158.11 µM): 0.142
relative viability (CAL-12T; first compound 500 µM): 0.015
relative viability (201T; first compound 5 µM): 1.12
relative viability (201T; first compound 15.81 µM): 1.03
relative viability (201T; first compound 50 µM): 1.11
relative viability (201T; first compound 158.11 µM): 0.329
relative viability (201T; first compound 500 µM): 0.0557
relative viability (H3255; first compound 5 µM): 0.887
relative viability (H3255; first compound 15.81 µM): 0.685
relative viability (H3255; first compound 50 µM): 0.89
relative viability (H3255; first compound 500 µM): 0.785
relative viability (NCI-H647; first compound 5 µM): 0.992
relative viability (NCI-H647; first compound 15.81 µM): 1.2
relative viability (NCI-H647; first compound 50 µM): 1.15
relative viability (NCI-H647; first compound 158.11 µM): 0.34
relative viability (NCI-H647; first compound 500 µM): 0.0186
relative viability (NCI-H2170; first compound 5 µM): 0.767
relative viability (NCI-H2170; first compound 15.81 µM): 0.906
relative viability (NCI-H2170; first compound 50 µM): 0.929
relative viability (NCI-H2170; first compound 158.11 µM): 0.795
relative viability (NCI-H2170; first compound 500 µM): 0.139
relative viability (PC-14; first compound 5 µM): 0.953
relative viability (PC-14; first compound 15.81 µM): 0.862
relative viability (PC-14; first compound 50 µM): 0.852
relative viability (PC-14; first compound 158.11 µM): 0.845
relative viability (PC-14; first compound 500 µM): 0.991
